Measurements as given in patent publication US20260262643A1, “HERBICIDAL BENZOXAZINES” (FMC CORPORATION, priority 2022, published 2026).

Experiments:
[1] = test system: barnyardgrass; test: Test C preemergence; format: in vivo, Echinochloa crusgalli; conditions: for Barnyardgrass plant response rating: preemergence; for Plant response rating, Barnyardgrass: Preemergence
Method in brief: (§1)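 Pre: seeds in loam/sand, directed soil spray. Post: 1–2 leaf plants, 2–10 cm. Cmpd in non-phytotoxic solvent + surfactant. Greenhouse 10 d; visual rating vs untreated, 0 = none, 100 = complete control.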

[2] = test system: blackgrass; test: Test C preemergence; format: in vivo, Alopecurus myosuroides; conditions: for Blackgrass plant response rating: preemergence; for Plant response rating, Blackgrass: Preemergence
Method in brief: as §1

[3] = test system: corn; test: Test C preemergence; format: in vivo, Zea mays; conditions: 0 to 100 scale (0 no effect, 100 complete control); for Corn plant response rating: preemergence
Method in brief: as §1

[4] = test system: green foxtail; test: Test C preemergence; format: in vivo, Setaria viridis; conditions: for Foxtail, Green plant response rating: preemergence; for Plant response rating, Foxtail, Green: Preemergence
Method in brief: as §1

[5] = test system: kochia; test: Test C preemergence; format: in vivo, Bassia scoparia; conditions: for Plant response rating, Kochia: Preemergence
Method in brief: as §1

[6] = test system: oat, wild; test: Test C preemergence; format: in vivo, Avena fatua; conditions: for Oat, Wild plant response rating: preemergence; for Plant response rating, Oat, Wild: Preemergence
Method in brief: as §1

[7] = test system: pigweed, palmer; test: Test C preemergence; format: in vivo, Amaranthus palmeri; conditions: for Pigweed, Palmer plant response rating: preemergence; for Plant response rating, Pigweed, Palmer: Preemergence
Method in brief: as §1

[8] = test system: ragweed; test: Test C preemergence; format: in vivo, Ambrosia artemisiifolia; conditions: for Ragweed plant response rating: preemergence; for Plant response rating, Ragweed: Preemergence
Method in brief: as §1

[9] = test system: ryegrass, Italian; test: Test C preemergence; format: in vivo, Lolium multiflorum; conditions: for Ryegrass, Italian plant response rating: preemergence; for Plant response rating, Ryegrass, Italian: Preemergence
Method in brief: as §1

[10] = test system: soybean; test: Test C preemergence; format: in vivo, Glycine max; conditions: for Soybean plant response rating: preemergence; for Plant response rating, Soybean: Preemergence
Method in brief: as §1

[11] = test system: wheat; test: Test C preemergence; format: in vivo, Triticum aestivum; conditions: for Wheat plant response rating: preemergence; for Plant response rating, Wheat: Preemergence
Method in brief: as §1

[12] = test system: barnyardgrass; test: Test C postemergence; format: in vivo, Echinochloa crusgalli; conditions: 10 days
Method in brief: as §1

[13] = test system: blackgrass; test: Test C postemergence; format: in vivo, Alopecurus myosuroides; conditions: 10 days
Method in brief: as §1

[14] = test system: corn; test: Test C postemergence; format: in vivo, Zea mays; conditions: 10 days
Method in brief: as §1

[15] = test system: green foxtail; test: Test C postemergence; format: in vivo, Setaria viridis; conditions: 10 days
Method in brief: as §1

[16] = test system: kochia; test: Test C postemergence; format: in vivo, Bassia scoparia; conditions: 10 days
Method in brief: as §1

[17] = test system: oat, wild; test: Test C postemergence; format: in vivo, Avena fatua; conditions: 10 days
Method in brief: as §1

[18] = test system: pigweed, palmer; test: Test C postemergence; format: in vivo, Amaranthus palmeri; conditions: 10 days
Method in brief: as §1

[19] = test system: ragweed; test: Test C postemergence; format: in vivo, Ambrosia artemisiifolia; conditions: 10 days
Method in brief: as §1

[20] = test system: ryegrass, Italian; test: Test C postemergence; format: in vivo, Lolium multiflorum; conditions: 10 days
Method in brief: as §1

[21] = test system: soybean; test: Test C postemergence; format: in vivo, Glycine max; conditions: 10 days
Method in brief: as §1

[22] = test system: wheat; test: Test C postemergence; format: in vivo, Triticum aestivum; conditions: 10 days
Method in brief: as §1

[23] = test system: galium; test: Test C postemergence; format: in vivo, Galium aparine; conditions: 10 days
Method in brief: as §1

[24] = test system: horseweed; test: Test C postemergence; format: in vivo, Erigeron canadensis; conditions: 10 days
Method in brief: as §1

[25] = test system: barnyardgrass; test: Test D flooded paddy test; format: in vivo, Echinochloa crus-galli; conditions: 250 g ai/ha, applied to paddy water, visual rating after 13 to 14 days, scale 0 to 100 (0 no effect, 100 complete control)
Method in brief: (§2)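 Plants at the 2-leaf stage were grown in pots flooded to 3 cm, and compound was applied directly into the paddy water, with depth kept throughout. After 13–14 days in a greenhouse, injury was rated visually against untreated controls on a 0–100 scale (100 = complete control); a dash means not tested.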

[26] = test system: ducksalad; test: Test D flooded paddy test; format: in vivo, Heteranthera limosa; conditions: 250 g ai/ha, applied to paddy water, visual rating after 13 to 14 days, scale 0 to 100 (0 no effect, 100 complete control)
Method in brief: as §2

[27] = test system: rice; test: Test D flooded paddy test; format: in vivo, Oryza sativa; conditions: 250 g ai/ha, applied to paddy water, visual rating after 13 to 14 days, scale 0 to 100 (0 no effect, 100 complete control)
Method in brief: as §2

[28] = test system: sedge, umbrella; test: Test D flooded paddy test; format: in vivo, Cyperus difformis; conditions: 250 g ai/ha, applied to paddy water, visual rating after 13 to 14 days, scale 0 to 100 (0 no effect, 100 complete control)
Method in brief: as §2

[29] = 500 g ai/ha, 0 to 100 scale (0 no effect, 100 complete control)
[30] = 125 g ai/ha, 0 to 100 scale, 0 no effect, 100 complete control
[31] = 500 g ai/ha, postemergence, 0 to 100 scale (0 no effect, 100 complete control)
[32] = Postemergence, 125 g ai/ha, 0 to 100 scale (0 no effect, 100 complete control)
[33] = 500 g ai/ha, visual rating after 10 days, 0 to 100 scale (0 no effect, 100 complete control)
[34] = Test C, 125 g ai/ha, 0 to 100 scale (0 no effect, 100 complete control)
[35] = 125 g ai/ha, postemergence, 0 to 100 scale, 0 no effect, 100 complete control
[36] = Postemergence, 500 g ai/ha, visual 0 to 100 scale (0 no effect, 100 complete control)

Cc1ncn(-c2ccc(F)c(C(=S)N3C[C@H](C)Oc4c(C)cccc43)c2)n1 [Compound 362]
Barnyardgrass plant response rating [1, 29]: 100 | Plant response rating, Barnyardgrass [1, 30]: 80 | Blackgrass plant response rating [2, 29]: 80 | Plant response rating, Blackgrass [2, 30]: 50 | Corn plant response rating ([3]; 500 g ai/ha): 20 | Foxtail, Green plant response rating [4, 29]: 100 | Plant response rating, Foxtail, Green [4, 30]: 100 | Kochia plant response rating ([5]; 500 g ai/ha, preemergence, 0 to 100 scale (0 no effect, 100 complete control)): 80 | Plant response rating, Kochia [5, 30]: 70 | Oat, Wild plant response rating [6, 29]: 70 | Plant response rating, Oat, Wild [6, 30]: 0 | Pigweed, Palmer plant response rating [7, 29]: 100 | Plant response rating, Pigweed, Palmer [7, 30]: 90 | Ragweed plant response rating [8, 29]: 60 | Plant response rating, Ragweed [8, 30]: 20 | Ryegrass, Italian plant response rating [9, 29]: 90 | Plant response rating, Ryegrass, Italian [9, 30]: 80 | Soybean plant response rating [10, 29]: 70 | Plant response rating, Soybean [10, 30]: 50 | Wheat plant response rating [11, 29]: 40 | Plant response rating, Wheat [11, 30]: 10 | Plant response rating, Barnyardgrass [12, 31]: 90 | Plant response rating, Barnyardgrass [12, 32]: 60 | Plant response rating, Blackgrass [13, 31]: 90 | Plant response rating, Blackgrass [13, 32]: 70 | Plant response rating, Corn [14, 31]: 40 | Plant response rating, Corn [14, 32]: 30 | Plant response rating, Foxtail, Green [15, 31]: 90 | Plant response rating, Foxtail, Green [15, 32]: 70 | Plant response rating, Kochia [16, 31]: 90 | Plant response rating, Kochia [16, 32]: 80 | Plant response rating, Oat, Wild [17, 31]: 60 | Plant response rating, Oat, Wild [17, 32]: 30 | Plant response rating, Pigweed, Palmer [18, 31]: 80 | Plant response rating, Pigweed, Palmer [18, 32]: 30 | Plant response rating, Ragweed [19, 31]: 60 | Plant response rating, Ragweed [19, 32]: 50 | Plant response rating, Ryegrass, Italian [20, 31]: 90 | Plant response rating, Ryegrass, Italian [20, 32]: 80 | Plant response rating, Soybean [21, 31]: 100 | Plant response rating, Soybean [21, 32]: 100 | Plant response rating, Wheat [22, 31]: 60 | Plant response rating, Wheat [22, 32]: 40 | Plant response rating, Galium [23, 31]: 100 | Plant response rating, Galium [23, 32]: 100 | Plant response rating, Horseweed [24, 31]: 10 | Plant response rating, Horseweed [24, 32]: 0 | Plant response rating, Barnyardgrass (Flood) [25]: 35 | Plant response rating, Ducksalad (Flood) [26]: 50 | Plant response rating, Rice (Flood) [27]: 25 | Plant response rating, Sedge, Umbrella (Flood) [28]: 95

COC[C@H]1CN(C(=O)c2cc(-n3cncn3)ccc2C)c2cccc(Cl)c2O1 [Compound 263]
Plant response rating, Barnyardgrass [1, 33]: 90 | Barnyardgrass plant response rating [1, 34]: 70 | Plant response rating, Blackgrass [2, 33]: 90 | Blackgrass plant response rating [2, 34]: 50 | Plant response rating, Corn ([3]; Preemergence, 500 g ai/ha, visual rating after 10 days): 60 | Corn plant response rating ([3]; Test C, 125 g ai/ha): 20 | Plant response rating, Foxtail, Green [4, 33]: 100 | Foxtail, Green plant response rating [4, 34]: 90 | Plant response rating, Kochia [5, 33]: 70 | Plant response rating, Oat, Wild [6, 33]: 70 | Oat, Wild plant response rating [6, 34]: 30 | Plant response rating, Pigweed, Palmer [7, 33]: 100 | Pigweed, Palmer plant response rating [7, 34]: 70 | Plant response rating, Ragweed [8, 33]: 30 | Ragweed plant response rating [8, 34]: 0 | Plant response rating, Ryegrass, Italian [9, 33]: 90 | Ryegrass, Italian plant response rating [9, 34]: 80 | Plant response rating, Soybean [10, 33]: 90 | Soybean plant response rating [10, 34]: 80 | Plant response rating, Wheat [11, 33]: 40 | Wheat plant response rating [11, 34]: 20 | Plant response rating, Barnyardgrass [12, 35]: 70 | Plant response rating, Barnyardgrass [12, 36]: 90 | Plant response rating, Blackgrass [13, 35]: 80 | Plant response rating, Blackgrass [13, 36]: 90 | Plant response rating, Corn [14, 35]: 30 | Plant response rating, Corn [14, 36]: 90 | Plant response rating, Foxtail, Green [15, 35]: 80 | Plant response rating, Foxtail, Green [15, 36]: 90 | Plant response rating, Kochia [16, 35]: 70 | Plant response rating, Kochia [16, 36]: 70 | Plant response rating, Oat, Wild [17, 35]: 10 | Plant response rating, Oat, Wild [17, 36]: 50 | Plant response rating, Pigweed, Palmer [18, 35]: 40 | Plant response rating, Pigweed, Palmer [18, 36]: 80 | Plant response rating, Ragweed [19, 35]: 40 | Plant response rating, Ragweed [19, 36]: 90 | Plant response rating, Ryegrass, Italian [20, 35]: 80 | Plant response rating, Ryegrass, Italian [20, 36]: 90 | Plant response rating, Soybean [21, 35]: 100 | Plant response rating, Soybean [21, 36]: 100 | Plant response rating, Wheat [22, 35]: 30 | Plant response rating, Wheat [22, 36]: 80 | Plant response rating, Galium [23, 35]: 100 | Plant response rating, Galium [23, 36]: 100 | Plant response rating, Horseweed [24, 35]: 0 | Plant response rating, Horseweed [24, 36]: 20 | Plant response rating, Barnyardgrass (Flood) [25]: 20 | Plant response rating, Ducksalad (Flood) [26]: 65 | Plant response rating, Rice (Flood) [27]: 0 | Plant response rating, Sedge, Umbrella (Flood) [28]: 85
